Data taken from US11464733B2, “Enema for rectal application” (Dr. Falk Pharma GmbH, priority 2016, dated 2022).

Tests used:
[1] = system: patients with active ulcerative colitis; experiment: Placebo-controlled double-blind trial: mucosal endoscopy, MMDAI endoscopic finding score; format: in vivo, human; conditions: change from 6th to 12th week; 2 mg twice a day; of 20
Description: Placebo-controlled randomized double-blind multicenter collaborative parallel group comparison test
(§1) Superiority of the budesonide compared with placebo for mucosal healing as the primary endpoint are investigated for patients with active ulcerative colitis when budesonide 2 mg is rectally administered twice a day for 6 weeks by a double-blind comparative study with placebo as a control, and the safety thereof was investigated.
(§2) Furthermore, the efficacy and safety of administering were investigated, to patients with inflammatory bowel disease who have been administered 1.5 to 2.5 mg of budesonide twice a day for 6 weeks and shown signs of healing but no mucous membrane healing, 1.5 to 2.5 mg of budesonide twice a day for an additional 6 weeks (for a total of 12 weeks) (clinical trial number: Japic CTI—142704).
For the trial, an aerosol with fixed dose injection type for rectal injection (rectal foaming agent) is used as a test drug, in which 25 mL (1.35 g) of white creamy foam containing 2 mg of budesonide is released by one injection. As a remission induction therapeutic agent of ulcerative colitis in active phase where the lesion is confined to the rectum and sigmoid colon, the aerosol for rectal injection is approved in Europe at a dosage and dose of budesonide 2 mg once a day (trade name: Budenofalk 2 mg/dose rectal foam, manufactured by Dr. Falk Pharma GmbH).
The subjects are ulcerative colitis patients in active phase, and are divided into a group administered the test drug twice a day (hereafter, the budesonide-administered group), and a group administered the control drug (hereinafter, the placebo group).
(§3) The test drug or control drug is rectally administered twice a day (once in the morning and once in the evening), after defecation, if possible. The number of injections per dose is one, the administration period is 6 weeks, if no mucous membrane healing occurred (an endoscope view score of 0 points), an administration period of 12 weeks can be used, and the drug is administered until the evening before the evaluation. The dose of budesonide in each group is 4 mg/day for the twice a day group, and 0 mg/day for the placebo group. The subjects with a 12-week administration period included 20 subjects in the budesonide administered group, and 18 subjects in the placebo group.
The score by the doctor was used for the initial test, and after an administration period of 6 weeks, whether the prescription was continued for 6 more weeks or not. The score by the central judgment committee was used as the judgement of effectiveness. […] Furthermore, the change of the endoscope finding score from 6th week to 12th week of each subject of placebo group is shown in Table 2, and the change in the endoscope finding score from 6th week to 12th week of each subject of the budesonide-administered group is shown in Table 3.

[2] = system: patients with active ulcerative colitis; experiment: Same trial: safety, adverse events; format: in vivo, human
Description: as §1, §2, §3

serous cortisol = experiment: Same trial: blood biochemistry check, serous cortisol density; format: in vivo, human
[3] = system: serous ACTH (adrenocorticotropic hormone); experiment: Same trial: blood biochemistry check, serous ACTH density; format: in vivo, human
acidophilic leucocyte = experiment: Same trial: hematology checks, leukocyte fractionation; format: in vivo, human
[4] = cited from earlier work
[5] = 0th week (before prescription), 20 cases analysed
[6] = 12th week (prescription end), 19 cases analysed
[7] = After observation, 20 cases analysed

## CCCC1O[C@@H]2C[C@H]3[C@@H]4CCC5=CC(=O)C=C[C@]5(C)[C@H]4[C@@H](O)C[C@]3(C)[C@]2(C(=O)CO)O1 (mixture of isomers) [Budesonide, (+)-[(RS)-16α,17α-Butylidenedioxy-11β,21-dihydroxy-1,4-pregnadiene-3,20-dione]]
[1]
  Number of subjects, endoscope finding score 6th week 2 / 12th week Unmeasured: 0 subjects
  Number of subjects, endoscope finding score 6th week 3 / 12th week 0: 0 subjects
  Number of subjects, endoscope finding score 6th week 3 / 12th week 1: 0 subjects
  Number of subjects, endoscope finding score 6th week 3 / 12th week 2: 0 subjects
  Number of subjects, endoscope finding score 6th week 3 / 12th week 3: 0 subjects
  Number of subjects, endoscope finding score 6th week 3 / 12th week Unmeasured: 0 subjects
  Percentage of subjects, endoscope finding score 6th week 0 / 12th week 0: 0.0%
  Percentage of subjects, endoscope finding score 6th week 0 / 12th week 1: 5.0%
  Percentage of subjects, endoscope finding score 6th week 0 / 12th week 2: 0.0%
  Percentage of subjects, endoscope finding score 6th week 0 / 12th week 3: 0.0%
  Percentage of subjects, endoscope finding score 6th week 0 / 12th week Unmeasured: 15.0%
  Percentage of subjects, endoscope finding score 6th week 1 / 12th week 1: (30.0) %
  Percentage of subjects, endoscope finding score 6th week 1 / 12th week 3: (0.0) %
  Percentage of subjects, endoscope finding score 6th week 1 / 12th week Unmeasured: (10.0) %
  Percentage of subjects, endoscope finding score 6th week 2 / 12th week 0: 5.0%
  Percentage of subjects, endoscope finding score 6th week 2 / 12th week 1: 0.0%
  Percentage of subjects, endoscope finding score 6th week 2 / 12th week 2: 5.0%
  Percentage of subjects, endoscope finding score 6th week 2 / 12th week 3: 0.0%
  Percentage of subjects, endoscope finding score 6th week 2 / 12th week Unmeasured: 0.0%
  Percentage of subjects, endoscope finding score 6th week 3 / 12th week 0: 0.0%
  Percentage of subjects, endoscope finding score 6th week 3 / 12th week 1: 0.0%
  Percentage of subjects, endoscope finding score 6th week 3 / 12th week 2: 0.0%
  Percentage of subjects, endoscope finding score 6th week 3 / 12th week 3: 0.0%
  Percentage of subjects, endoscope finding score 6th week 3 / 12th week Unmeasured: 0.0%
[2]; 12 week administration
  Death, severe adverse events or serious adverse event: no death, severe adverse events or serious adverse event, were observed
[2]; budesonide 2 mg, rectal administration twice a day for 6 weeks (so in the source), patients of ulcerative colitis
  Tolerability: acceptable
[2]; versus placebo group
  Manifestation of adverse events as a result of the drug tested: couldn't admit between Placebo group
  Manifested frequency of the adverse event: higher than in the placebo group
Serous cortisol; [5]
  Serous cortisol: applicable examples (cases below standard value): 0
  Serous cortisol: percentage of cases below standard value: 0.0%
Serous cortisol; 0th week (before prescription), 20 cases analysed, listed as budesonide
  Serous cortisol: percentage of cases below standard value: 0%
Serous cortisol; 6th week and 12th week versus 0th week (before prescription)
  Serous cortisol density: low compared with the 0th week
Serous cortisol; [6]
  Serous cortisol: applicable examples (cases below standard value): 11
  Serous cortisol: percentage of cases below standard value: 57.9%
Serous cortisol; [7]
  Serous cortisol: applicable examples (cases below standard value): 2
  Serous cortisol: percentage of cases below standard value: 10.0%
Serous cortisol; by the after observation
  Recovery of subjects with both serous cortisol and serous ACTH density below the standard value in the 12th week: mostly recovered to within the standard value
Serous cortisol; observed for 2-4 weeks after the end of the 12-week administration period
  Serous cortisol density after end of administration: reverting to the value in the 0th week
[3]; [5]
  Serous ACTH: applicable examples (cases below standard value): 3
  Serous ACTH: percentage of cases below standard value: 15.0%
[3]; [6]
  Serous ACTH: applicable examples (cases below standard value): 8
  Serous ACTH: percentage of cases below standard value: 42.1%
[3]; [7]
  Serous ACTH: applicable examples (cases below standard value): 2
  Serous ACTH: percentage of cases below standard value: 10.0%
Acidophilic leucocyte; 4th week to 12th week compared with 0th week and placebo group
  Percentage of the acidophilic leucocyte of leukocyte fractionation: decrease
Acidophilic leucocyte; in vivo
  Other items of hematology and blood biochemistry checks: no clear fluctuation in other items could be seen
[4]
  Solubility in water: low solubility in water
